From article PMC6980506, “Comparative pharmacokinetics and pharmacodynamics of the advanced Retinol-Binding Protein 4 antagonist in dog and cynomolgus monkey” (PLoS ONE, 2020)

Key:
[1] = Metabolic clearance in dog hepatocytes; format: in vitro ADME; details: male, beagle, cryopreserved hepatocytes, read-out: Hepatocyte CLint (intrinsic clearance)
Protocol: (§1) All measurements were done in duplicate. Testosterone and 7-hydroxycoumarin were used as positive controls. Pooled cryopreserved human hepatocytes, cryopreserved male beagle dog hepatocytes, and cryopreserved male cynomolgus monkey hepatocytes were obtained from BioIVT (Baltimore, MD). Compound at 1 μM was incubated with 1 x 10^6 cells. Final DMSO concentration in the reaction mix was 0.1%. Aliquots (100 μL) of reaction mixtures were removed from the incubation plate at different timepoints and mixed with 150 μL of ice-cold acetonitrile. After incubation on ice for 15 min, the samples were centrifuged (3,600 rpm, 10 min, 4°C) to precipitate protein. The supernatants were diluted 1:1 (v/v) with water containing internal standards and subjected to the LC/MS analysis. Hepatic clearance was calculated using the well-stirred liver model

[2] = Metabolic stability in human liver microsomes; format: in vitro ADME; details: both sexes, pH 7.4, 1 mg/mL, read-out: Microsomal Stability (% Remaining at 30 min)
Protocol: All measurements were done in duplicate. Pooled mixed gender human donor microsomes, male beagle dog microsomes and male cynomolgus monkey were obtained from BioIVT (Baltimore, MD). […] A mixture containing 50 mM potassium phosphate buffer pH 7.4 and 1 mg/mL liver microsomes was pre-warmed for 10 min at 37°C in a shaking water bath, followed by the addition of test compound. Final DMSO concentration in the reaction mix was 0.1%. […] The final volume of the reaction mixture was 800 μL, containing 1 mg/mL liver microsomes, and 1 μM test compound. Aliquots (100 μL) of reaction mixtures were removed from the incubation plate at pre-defined timepoints and mixed with 150 μL of ice-cold acetonitrile, incubated on ice for 15 min, and samples were centrifuged (3,600 rpm, 10 min, 4°C) to precipitate protein. The supernatants were diluted 1:1 (v/v) with water containing the internal standard and subjected to the LC/MS analysis.

[3] = Metabolic clearance in cynomolgus monkey hepatocytes; format: in vitro ADME; details: male, cryopreserved hepatocytes, Cyno hepatocytes, read-out: Hepatocyte CLint (intrinsic clearance)
Protocol: as §1

serum RBP4 = tested on: serum RBP4; design: method as in PMID 29871924; details: mice; cited from earlier work

- hepatocyte CLint at 1 μM [1]: < 0.7 µL/min/1e6 cells
- remaining at 0.5 h, 1 μM [2]: 94%
- hepatocyte CLint at 1 μM [3]: 0.7 µL/min/1e6 cells
Structure (SMILES): Cc1cc(C(=O)O)nc(N2C[C@H]3C[C@@H](c4ccccc4C(F)(F)F)C[C@H]3C2)n1 [BPN-14136]
- serum RBP4 lowering (serum RBP4): 90%
